Test results published in patent US10375959B2, “Ternary herbicidal combination comprising saflufenacil” (BASF Agro B.V., priority 2015, dated 2019).
Several values for one entry are separate records, joined by “and”; a condition that tells them apart may be missing. Equal entries are not always repeated. Where two headings read alike, the source gives them in different places.

Experiments:
Format in all cases: in vivo
Abutilon theophrasti = assay: Greenhouse post-emergence herbicidal activity on ABUTH (velvetleaf), 20 DAT; details: for inhibition at 0.5 g/ha: 0.5 g ai/ha
Source text: (§1) The test plants were first grown to a height of 3 to 20 cm, depending on the plant habit, and only then treated (post-emergence treatment). Here, the herbicidal combinations were suspended, emulsified or dissolved in water as distribution medium and afterwards applied by spraying, using finely distributing nozzles.
(§2) The herbicides A, B and C were used as commercially available formulations and introduced to the spray liquor with the amount of solvent system used for applying the active compound. In the examples, the solvent used was water.
(§3) The test period extended over 20 days. During this time, the plants were tended, and their response to the treatments with active compounds was evaluated.
(§4) The evaluation for the damage caused by the chemical compositions was carried out using a scale from 0 to 100%, compared to the untreated control plants. Here, 0 means no damage and 100 means complete destruction of the plants.
(§5) The plants used in the greenhouse experiments belonged to the following species:
(§6) The value E, which is to be expected if the activity of the individual compounds is just additive, was calculated using the method of S. R. Colby (1967) “Calculating synergistic and antagonistic responses of herbicide combinations”, Weeds 15, p. 22 ff. For two component mixtures the value E was calculated by the following formula E=X+Y−(X·Y/100)
(§7) where X=effect in percent using a mixture of herbicides A and B at application rates a and b, respectively; • Y=effect in percent using herbicide C at an application rate c; • E=expected effect (in %) of A+B+C at application rates a+b+c.
(§8) If the value observed in this manner is higher than the value E calculated according to Colby, a synergistic effect is present.
(§9) Tables 1 to 41 relate to the herbicidal activities of the binary mixture of herbicides A and B, of herbicide C individually and of their combinations in post-emergence applications assessed 20 days after treatment (20 DAT).

Brachiaria platyphylla = assay: Greenhouse post-emergence herbicidal activity on BRAPP (broadleaf signalgrass), 20 DAT
Source text: as §1, §2, §3, §4, §5, §6, §7, §8, §9

Digitaria sanguinalis = assay: Greenhouse post-emergence herbicidal activity on DIGSA (large crabgrass), 20 DAT
Source text: as §1, §2, §3, §4, §5, §6, §7, §8, §9

Amaranthus retroflexus = assay: Greenhouse post-emergence herbicidal activity on AMARE (pig weed), 20 DAT
Source text: as §1, §2, §3, §4, §5, §6, §7, §8, §9

Avena fatua = assay: Greenhouse post-emergence herbicidal activity on AVEFA (wild oat), 20 DAT
Source text: as §1, §2, §3, §4, §5, §6, §7, §8, §9

Setaria viridis = assay: Greenhouse post-emergence herbicidal activity on SETVI (green foxtail), 20 DAT
Source text: as §1, §2, §3, §4, §5, §6, §7, §8, §9

Echinochloa crus-galli = assay: Greenhouse post-emergence herbicidal activity on ECHCG (barnyardgrass), 20 DAT
Source text: as §1, §2, §3, §4, §5, §6, §7, §8, §9

Solarium nigrum = assay: Greenhouse post-emergence herbicidal activity on SOLNI (black nightshade), 20 DAT
Source text: as §1, §2
The test period extended over 20 days. During this time, the plants were tended, and their response to the treatments with active compounds was evaluated. […]
The value E, which is to be expected if the activity of the individual compounds is just additive, was calculated using the method of S. R. Colby (1967) “Calculating synergistic and antagonistic responses of herbicide combinations”, Weeds 15, p. […] For two component mixtures the value E was calculated by the following formula E=X+Y−(X·Y/100) […]
as §8, §9

Brachiaria decumbens = assay: Greenhouse post-emergence herbicidal activity on BRADC (Surinam grass), 20 DAT
Source text: as §1, §2, §3, §4, §5, §6, §7, §8, §9

SMILES: CCCCC(CC)COC(=O)COc1ccc(Cl)cc1Cl (stereo not shown) [2,4-D LV ester, 2-ethylhexyl ester of 2,4-D]
- % activity 20 DAT (Abutilon theophrasti; ABUTH, C 6.25 g ai/ha): 20%
- % activity 20 DAT (Brachiaria platyphylla; C 6.25 g ai/ha): 20%
- % activity 20 DAT (Digitaria sanguinalis; DIGSA, C 6.25 g ai/ha): 0%

SMILES: CCOCN(C(=O)CCl)c1c(C)cccc1CC [acetochlor]
- pest or weed control at 25 g/ha (Abutilon theophrasti; Abutilon theophrasti, 480 h, ABUTH, C 25.0 g ai/ha): 25%
- % activity 20 DAT (Amaranthus retroflexus; AMARE, C 12.5 g ai/ha): 0%
- % activity 20 DAT (Avena fatua; C 50.0 g ai/ha): 10%
- % activity 20 DAT (Brachiaria platyphylla; C 50.0 g ai/ha): 5%
- % activity 20 DAT (Setaria viridis; C 50.0 g ai/ha): 10%

SMILES: CCNc1nc(Cl)nc(NC(C)C)n1 [atrazine]
- inhibition at 12.5 g/ha (Abutilon theophrasti; Abutilon theophrasti, 480 h, ABUTH, 12.5 g ai/ha, 20 DAT, read-out: % activity 20 DAT, solo C application): 25%
- % activity 20 DAT (Avena fatua; C 12.5 g ai/ha): 0%
- % activity 20 DAT (Brachiaria platyphylla; C 12.5 g ai/ha): 0%
- inhibition at 25 g/ha (Setaria viridis; Setaria viridis, 480 h, 25.0 g ai/ha, 20 DAT, read-out: % activity 20 DAT, solo C application): 25%

SMILES: CCSC(C)CC1CC(=O)C(/C(CC)=N/OC/C=C/Cl)=C(O)C1 (stereo not shown) [clethodim]
- pest or weed control at 0.75 g/ha (Abutilon theophrasti; Abutilon theophrasti, 480 h, read-out: % activity 20 DAT): 5%
- inhibition at 0.75 g/ha (Abutilon theophrasti; Abutilon theophrasti, 480 h, read-out: % activity 20 DAT, solo C application): 5%
- inhibition at 0.75 g/ha (Amaranthus retroflexus; Amaranthus retroflexus, 480 h, read-out: % activity 20 DAT, solo C application): 20%
- % activity 20 DAT (Avena fatua; C 0.75 g ai/ha): 20%
- inhibition at 0.75 g/ha (Digitaria sanguinalis; Digitaria sanguinalis, 480 h, read-out: % activity 20 DAT, solo C application): 0%

SMILES: COc1c(Cl)ccc(Cl)c1C(=O)O [dicamba]
- pest or weed control at 4.375 g/ha (Abutilon theophrasti; Abutilon theophrasti, 480 h, ABUTH, C 4.375 g ai/ha): 40%
- % activity 20 DAT (Brachiaria platyphylla; C 17.5 g ai/ha): 40%

SMILES: CCOc1nc(F)cc2nc(S(=O)(=O)Nc3c(Cl)cccc3Cl)nn12 [diclosulam]
- % activity 20 DAT, solo C application (Abutilon theophrasti; ABUTH, 0.125 g ai/ha, 20 DAT): 10%
- % activity 20 DAT, solo C application (Brachiaria platyphylla; 1.0 g ai/ha, 20 DAT): 45%
- % activity 20 DAT (Digitaria sanguinalis; DIGSA, C 0.5 g ai/ha): 25%
- % activity 20 DAT (Echinochloa crus-galli; C 1.0 g ai/ha): 20%
- % activity 20 DAT (Solarium nigrum; C 0.125 g ai/ha): 0%

SMILES: COC[C@H](C)N(C(=O)CCl)c1c(C)csc1C [dimethenamid-P]
- % activity 20 DAT, solo C application (Abutilon theophrasti; ABUTH, 37.5 g ai/ha, 20 DAT): 0%
- % activity 20 DAT, solo C application (Amaranthus retroflexus; AMARE, 37.5 g ai/ha, 20 DAT): 0%
- % activity 20 DAT (Amaranthus retroflexus; AMARE, C 18.75 g ai/ha): 0%
- % activity 20 DAT (Avena fatua; C 75.0 g ai/ha): 20%
- % activity 20 DAT (Brachiaria platyphylla; C 75.0 g ai/ha): 5%
- % activity 20 DAT, solo C application (Echinochloa crus-galli; 75 g ai/ha, 20 DAT): 80%

SMILES: C#CCN1C(=O)COc2cc(F)c(N3C(=O)C4=C(CCCC4)C3=O)cc21 [flumioxazin]
- % activity 20 DAT (Setaria viridis; C 0.5 g ai/ha): 40%

SMILES: CS(=O)(=O)NC(=O)c1cc(Oc2ccc(C(F)(F)F)cc2Cl)ccc1[N+](=O)[O-] [fomesafen]
- inhibition at 3 g/ha (Abutilon theophrasti; Abutilon theophrasti, 480 h, ABUTH, 3.0 g ai/ha, 20 DAT, read-out: % activity 20 DAT, solo C application): 20%
- pest or weed control at […] (Abutilon theophrasti; Abutilon theophrasti, 480 h, ABUTH, C 1.5 g ai/ha): 5%
- inhibition at 3 g/ha (Amaranthus retroflexus; Amaranthus retroflexus, 480 h, AMARE, 3.0 g ai/ha, 20 DAT, read-out: % activity 20 DAT, solo C application): 65%
- % activity 20 DAT (Avena fatua; C 1.5 g ai/ha): 20%
- % activity 20 DAT (Brachiaria decumbens; C 3.0 g ai/ha): 30%
- inhibition at […] (Digitaria sanguinalis; Digitaria sanguinalis, 480 h, DIGSA, 1.5 g ai/ha, 20 DAT, read-out: % activity 20 DAT, solo C application): 20%
- inhibition at […] (Echinochloa crus-galli; Echinochloa crus-galli, 480 h, 1.5 g ai/ha, 20 DAT, read-out: % activity 20 DAT, solo C application): 20%

SMILES: COCc1cnc(C2=NC(C)(C(C)C)C(=O)N2)c(C(=O)O)c1 (stereo not shown) [imazamox]
- inhibition at 0.5 g/ha (Abutilon theophrasti; Abutilon theophrasti, 480 h, ABUTH, 20 DAT, Table 38, read-out: % activity 20 DAT, solo C application): 0%
- pest or weed control at 0.5 g/ha (Abutilon theophrasti; Abutilon theophrasti, 480 h, ABUTH, C 0.5 g ai/ha): 0%
- % activity 20 DAT (Amaranthus retroflexus; AMARE, C 0.125 g ai/ha): 10%
- inhibition at 0.5 g/ha (Amaranthus retroflexus; Amaranthus retroflexus, 480 h, AMARE, 0.5 g ai/ha, 20 DAT, read-out: % activity 20 DAT, solo C application): 40%
- % activity 20 DAT (Digitaria sanguinalis; DIGSA, C 1.0 g ai/ha): 15%
- inhibition at 0.5 g/ha (Digitaria sanguinalis; Digitaria sanguinalis, 480 h, DIGSA, 0.5 g ai/ha, 20 DAT, read-out: % activity 20 DAT, solo C application): 10%
- % activity 20 DAT (Echinochloa crus-galli; C 0.5 g ai/ha): 0%
- inhibition at 0.5 g/ha (Setaria viridis; Setaria viridis, 480 h, 0.5 g ai/ha, 20 DAT, read-out: % activity 20 DAT, solo C application): 15%

SMILES: CCc1cnc(C2=NC(C)(C(C)C)C(=O)N2)c(C(=O)O)c1 (stereo not shown) [imazethapyr]
- % activity 20 DAT (Amaranthus retroflexus; AMARE, C 1.0 g ai/ha): 55%
- % activity 20 DAT (Avena fatua; C 0.5 g ai/ha): 0%
- % activity 20 DAT (Digitaria sanguinalis; DIGSA, C 0.5 g ai/ha): 15%
- % activity 20 DAT (Digitaria sanguinalis; DIGSA, C 2.0 g ai/ha): 20%

SMILES: CS(=O)(=O)c1cc(C(F)(F)F)ccc1C(=O)c1cnoc1C1CC1 [isoxaflutole]
- inhibition at 0.5 g/ha (Abutilon theophrasti; Abutilon theophrasti, 480 h, ABUTH, 20 DAT, Table 36, read-out: % activity 20 DAT, solo C application): 50%
- pest or weed control at 1 g/ha (Abutilon theophrasti; Abutilon theophrasti, 480 h, ABUTH, C 1.0 g ai/ha): 85%
- % activity 20 DAT (Brachiaria platyphylla; C 2.0 g ai/ha): 40%
- % activity 20 DAT (Digitaria sanguinalis; DIGSA, C 1.0 g ai/ha): 25%
- % activity 20 DAT (Solarium nigrum; C 0.5 g ai/ha): 70%

SMILES: CS(=O)(=O)c1ccc(C(=O)C2C(=O)CCCC2=O)c([N+](=O)[O-])c1 [mesotrione]
- inhibition at 0.625 g/ha (Abutilon theophrasti; Abutilon theophrasti, 480 h, ABUTH, 0.625 g ai/ha, 20 DAT, read-out: % activity 20 DAT, solo C application): 75%
- % activity (Amaranthus retroflexus; AMARE, 20 DAT, C 0.625): 0%
- % activity (Brachiaria platyphylla; 20 DAT, C 5.0): 35%
- inhibition at 5 g/ha (Brachiaria platyphylla; Urochloa platyphylla, 480 h, 5.0 g ai/ha, 20 DAT, read-out: % activity 20 DAT, solo C application): 40%
- % activity 20 DAT (Digitaria sanguinalis; DIGSA, C 2.5 g ai/ha): 80%

SMILES: CCC(CC)Nc1c([N+](=O)[O-])cc(C)c(C)c1[N+](=O)[O-] [pendimethalin]
- pest or weed control at 37.5 g/ha (Abutilon theophrasti; Abutilon theophrasti, 480 h, ABUTH, C 37.5 g ai/ha): 0%
- % activity 20 DAT (Avena fatua; C 150.0 g ai/ha): 0%
- % activity 20 DAT (Echinochloa crus-galli; C 75.0 g ai/ha): 0%
- % activity 20 DAT (Echinochloa crus-galli; C 150.0 g ai/ha): 0%

SMILES: Cc1c(C(=O)c2cnn(C)c2O)ccc(S(C)(=O)=O)c1C1=NOCC1 [topramezone]
- % activity 20 DAT, solo C application (Abutilon theophrasti; ABUTH, 0.25 g ai/ha, 20 DAT): 10%
- % activity 20 DAT (Abutilon theophrasti; ABUTH, C 0.25 g ai/ha): 10% and 0%
- % activity 20 DAT, solo C application (Amaranthus retroflexus; AMARE, 0.25 g ai/ha, 20 DAT): 40%
- % activity 20 DAT (Amaranthus retroflexus; AMARE, C 0.25 g ai/ha): 40%
- % activity 20 DAT, solo C application (Avena fatua; 0.25 g ai/ha, 20 DAT): 0%
- % activity 20 DAT (Brachiaria decumbens; C 0.25 g ai/ha): 0%
- % activity 20 DAT (Brachiaria decumbens; C 0.5 g ai/ha): 0%
- % activity 20 DAT, solo C application (Echinochloa crus-galli; 0.25 g ai/ha, 20 DAT): 25%
- % activity 20 DAT (Echinochloa crus-galli; C 0.25 g ai/ha): 25% and 20%
- % activity 20 DAT, solo C application (Setaria viridis; 0.25 g ai/ha, 20 DAT): 0%
- % activity 20 DAT (Setaria viridis; C 0.25 g ai/ha): 0%
- % activity 20 DAT (Setaria viridis; C 0.5 g ai/ha): 0%
